The subject of experiment [1] is NQO1 mRNA in BEAS-2B cells. Nature of the experiment: Beas2B NQO1 mRNA cell based assay. To be noted: Homo sapiens, 24 h compound treatment, increase in NQO1 mRNA vs vehicle (0.1% DMSO), read-out: EC50. Set-up: species or system human. The method in brief: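 Relative NQO1 transcript level derived by ΔΔCT with human β-actin as internal control, using direct-lysate one-step RT-qPCR. Cells were BEAS-2B, plated overnight then treated with compound for 24 h.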

Experiment [2] has as its target human KEAP1 (N-term, residues 321-609) (Homo sapiens, UniProt Q14145). Nature of the experiment: biochemical.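 Further: fluorescence polarization competition assay of Kelch domain binding to NRF2, 12-point 1:3 dilution series from 10 µM, read after 1 h at room temperature, floor 10 nM.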

SMILES strings stand for the structures. Read-outs that look alike come from different tables or passages of the source.

By EC50 is commonly meant the concentration that produces a half-maximal response. By IC50 is commonly meant the midpoint of a concentration-inhibition curve.

Chain of human KEAP1 (N-term, residues 321-609) (Q14145 321-609): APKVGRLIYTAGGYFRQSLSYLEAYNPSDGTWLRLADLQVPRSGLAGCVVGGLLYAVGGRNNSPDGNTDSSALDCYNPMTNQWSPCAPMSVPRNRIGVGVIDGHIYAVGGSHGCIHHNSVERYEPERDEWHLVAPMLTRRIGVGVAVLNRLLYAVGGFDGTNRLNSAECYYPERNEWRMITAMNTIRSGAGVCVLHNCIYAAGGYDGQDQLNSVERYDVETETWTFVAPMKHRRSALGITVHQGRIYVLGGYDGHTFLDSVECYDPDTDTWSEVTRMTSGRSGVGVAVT

As for `CCn1nnc(COc2ccc(Cl)c3c2[C@@H](CN2CCCC2=O)N(C(=O)[C@@H]2CCCC[C@@H]2C(=O)O)CC3)c1C(F)F` [Example 79, (1S,2R)-2-((S)-5-Chloro-8-((5-(difluoromethyl)-1-ethyl-1H-1,2,3-triazol-4-yl)methoxy)-1-((2-oxopyrrolidin-1-yl)methyl)-1,2,3,4-tetrahydroisoquinoline-2-carbonyl)cyclohexane-1-carboxylic acid], in experiment [1] (BEAS-2B, 24 h), the EC50 was 1.2 nM. In experiment [2], this compound yielded an IC50 of 6.7 nM.
For `C[C@H](CC(=O)O)C(=O)N1CCc2c(Cl)ccc(OCc3noc4ccccc34)c2[C@H]1CN1CCCC1=O` [Example 80, (R)-4-((S)-8-(Benzo[d]isoxazol-3-ylmethoxy)-5-chloro-1-((2-oxopyrrolidin-1-yl)methyl)-3,4-dihydroisoquinolin-2(1H)-yl)-3-methyl-4-oxobutanoic acid], in that order: 110 nM and 4.8 nM.
As for `Cn1nnc(COc2ccc(Cl)c3c2[C@@H](CN2CCCC2=O)N(C(=O)[C@@H]2CCCC[C@@H]2C(=O)O)CC3)c1C(F)F` [Example 82, (1S,2R)-2-((S)-5-Chloro-8-((5-(difluoromethyl)-1-methyl-1H-1,2,3-triazol-4-yl)methoxy)-1-((2-oxopyrrolidin-1-yl)methyl)-1,2,3,4-tetrahydroisoquinoline-2-carbonyl) cyclohexane-1-carboxylic acid], in experiment [1] (BEAS-2B, 24 h), the concentration giving a half-maximal response (EC50) is 1.3 nM. Moreover, 7.7 nM corresponded to half-maximal inhibition in experiment [2] (IC50).
The corresponding values for `CC(C)c1nc(COc2ccc(Cl)c3c2[C@@H](CN2CCCC2=O)N(C(=O)[C@@H]2CCCC[C@@H]2C(=O)O)CC3)no1` [Example 83, (1S,2R)-2-((S)-5-Chloro-8-((5-isopropyl-1,2,4-oxadiazol-3-yl)methoxy)-1-((2-oxopyrrolidin-1-yl)methyl)-1,2,3,4-tetrahydroisoquinoline-2-carbonyl) cyclohexane-1-carboxylic acid] are 35 nM and 7.8 nM.
As for `Cc1cnn(C[C@@H]2c3c(OCc4nnn(C)c4C(F)F)ccc(Cl)c3CCN2C(=O)[C@@H]2CCCC[C@@H]2C(=O)O)c1` [Example 84, (1S,2R)-2-((S)-5-chloro-8-((5-(difluoromethyl)-1-methyl-1H-1,2,3-triazol-4-yl)methoxy)-1-((4-methyl-1H-pyrazol-1-yl)methyl)-1,2,3,4-tetrahydroisoquinoline-2-carbonyl)cyclohexane-1-carboxylic acid], in experiment [1], the EC50 is 36 nM. Moreover, the IC50 in experiment [2] was found to be 6.1 nM.
For `O=C(O)[C@H]1CCCC[C@H]1C(=O)N1CCc2c(Cl)ccc(OCc3cncnc3)c2[C@H]1CN1CCCC1=O` [Example 85], in experiment [1] (BEAS-2B, 24 h), the EC50 turned out to be 34 nM. Moreover, 9.9 nM corresponded to half-maximal inhibition in experiment [2] (IC50).
For `Cn1nnc(COc2ccc(Cl)c3c2[C@@H](CN2CCCC2=O)N(C(=O)[C@@H]2CCC[C@@H]2C(=O)O)CC3)c1C(F)F` [Example 86, (1S,2R)-2-((S)-5-Chloro-8-((5-(difluoromethyl)-1-methyl-1H-1,2,3-triazol-4-yl)methoxy)-1-((2-oxopyrrolidin-1-yl)methyl)-1,2,3,4-tetrahydroisoquinoline-2-carbonyl)cyclopentane-1-carboxylic acid], in that order: 8.3 nM and 5 nM.
The corresponding values for `Cn1nnc(COc2ccc(Cl)c3c2[C@@H](CN2CCCC2=O)N(C(=O)[C@H]2CCC[C@H]2C(=O)O)CC3)c1C(F)F` [Example 87, (1R,2S)-2-((S)-5-Chloro-8-((5-(difluoromethyl)-1-methyl-1H-1,2,3-triazol-4-yl)methoxy)-1-((2-oxopyrrolidin-1-yl)methyl)-1,2,3,4-tetrahydroisoquinoline-2-carbonyl)cyclopentane-1-carboxylic acid] are 300 nM and 150 nM.
For `O=C(O)[C@H]1CCCC[C@H]1C(=O)N1CCc2c(Cl)ccc(OCc3cccnn3)c2[C@H]1CN1CCCC1=O` [Example 88, (1S,2R)-2-((S)-5-Chloro-1-((2-oxopyrrolidin-1-yl)methyl)-8-(pyridazin-3-ylmethoxy)-1,2,3,4-tetrahydroisoquinoline-2-carbonyl) cyclohexane-1-carboxylic acid], in that order: 78 nM and 11 nM.
In the case of `Cn1cnc2cc(COc3ccc(Cl)c4c3[C@@H](CN3CCCC3=O)N(C(=O)[C@@H]3CCCC[C@@H]3C(=O)O)CC4)cnc21` [Example 89, (1S,2R)-2-((S)-5-Chloro-8-((3-methyl-3H-imidazo[4,5-b]pyridin-6-yl)methoxy)-1-((2-oxopyrrolidin-1-yl)methyl)-1,2,3,4-tetrahydroisoquinoline-2-carbonyl) cyclohexane-1-carboxylic acid], in experiment [1] (BEAS-2B, 24 h), the EC50 came to 5.1 nM. The same compound had an IC50 in experiment [2] of 8.2 nM.
As to `Cn1nnc2cc(COc3ccc(Cl)c4c3[C@@H](CN3CCCC3=O)N(C(=O)[C@@H]3CCCC[C@@H]3C(=O)O)CC4)ccc21` [Example 90, (1S,2R)-2-((S)-5-Chloro-8-((1-methyl-1H-benzo [d][1,2,3]triazol-5-yl)methoxy)-1-((2-oxopyrrolidin-1-yl)methyl)-1,2,3,4-tetrahydroisoquinoline-2-carbonyl)cyclohexane-1-carboxylic acid], in experiment [1] (BEAS-2B, 24 h), the EC50 amounted to 8.1 nM. In experiment [2], the IC50 turned out to be 9.1 nM.
`Cn1nnc(COc2ccc(Cl)c3c2[C@@H](CN2CCCC2=O)N(C(=O)[C@@H]2CCCC[C@]2(C)C(=O)O)CC3)c1C(F)F` [Example 91, (1S,2R)-2-((S)-5-Chloro-8-((5-(difluoromethyl)-1-methyl-1H-1,2,3-triazol-4-yl)methoxy)-1-((2-oxopyrrolidin-1-yl)methyl)-1,2,3,4-tetrahydroisoquinoline-2-carbonyl)-1-methylcyclohexane-1-carboxylic acid]: in experiment [1] (BEAS-2B, 24 h), the EC50 stood at 0.21 nM. Moreover, it took 6.1 nM to reach half-maximal inhibition in experiment [2] (IC50).
For `O=C(O)[C@H]1CCCC[C@H]1C(=O)N1CCc2c(Cl)ccc(OCc3cn4cccnc4n3)c2[C@H]1CN1CCCC1=O` [Example 92, (1S,2R)-2-((S)-5-Chloro-8-(imidazo[1,2-a]pyrimidin-2-ylmethoxy)-1-((2-oxopyrrolidin-1-yl)methyl)-1,2,3,4-tetrahydroisoquinoline-2-carbonyl) cyclohexane-1-carboxylic acid], in that order: 180 nM and 15 nM.
`O=C(O)[C@H]1CCCC[C@H]1C(=O)N1CCc2c(Cl)ccc(OCc3noc4ncccc34)c2[C@H]1CN1CCCC1=O` [Example 93, (1S,2R)-2-((S)-5-Chloro-8-(isoxazolo[5,4-b]pyridin-3-ylmethoxy)-1-((2-oxopyrrolidin-1-yl)methyl)-1,2,3,4-tetrahydroisoquinoline-2-carbonyl) cyclohexane-1-carboxylic acid]: the EC50 in experiment [1] (BEAS-2B, 24 h) came to 15 nM. For the same compound, in experiment [2], the IC50 amounted to 7.2 nM.
With `O=C(O)[C@H]1CCCC[C@H]1C(=O)N1CCc2c(Cl)ccc(OCc3nnc4ccccn34)c2[C@H]1CN1CCCC1=O` [Example 94, (1S,2R)-2-((S)-8-([1,2,4]Triazolo[4,3-a]pyridin-3-ylmethoxy)-5-chloro-1-((2-oxopyrrolidin-1-yl)methyl)-1,2,3,4-tetrahydroisoquinoline-2-carbonyl) cyclohexane-1-carboxylic acid], in experiment [1] (BEAS-2B, 24 h), the EC50 amounted to 7.8 nM. In experiment [2], this compound registered an IC50 of 7.7 nM.
For `Cc1noc2nc(COc3ccc(Cl)c4c3[C@@H](CN3CCCC3=O)N(C(=O)[C@@H]3CCCC[C@@H]3C(=O)O)CC4)ccc12` [Example 95, (1S,2R)-2-((S)-5-Chloro-8-((3-methylisoxazolo[5,4-b]pyridin-6-yl)methoxy)-1-((2-oxopyrrolidin-1-yl)methyl)-1,2,3,4-tetrahydroisoquinoline-2-carbonyl) cyclohexane-1-carboxylic acid], in that order: 3.7 nM and 8 nM.
As to `Cn1nnc(COc2ccc(Cl)c3c2[C@@H](CN2CCCC2=O)N(C(=O)C2C4CCC(C4)C2C(=O)O)CC3)c1C(F)F` (stereo partly drawn) [Example 96, 3-((S)-5-Chloro-8-((5-(difluoromethyl)-1-methyl-1H-1,2,3-triazol-4-yl)methoxy)-1-((2-oxopyrrolidin-1-yl)methyl)-1,2,3,4-tetrahydroisoquinoline-2-carbonyl)bicyclo[2.2.1]heptane-2-carboxylic acid], the EC50 in experiment [1] (BEAS-2B, 24 h) amounted to 210 nM. The compound further gave an IC50 in experiment [2] of 18 nM.
Turning to `Cn1nnc(COc2ccc(Cl)c3c2[C@@H](CN2CCCC2=O)N(C(=O)C2CCOC2C(=O)O)CC3)c1C(F)F` (stereo partly drawn) [Example 97, 3-((S)-5-chloro-8-((5-(difluoromethyl)-1-methyl-1H-1,2,3-triazol-4-yl)methoxy)-1-((2-oxopyrrolidin-1-yl)methyl)-1,2,3,4-tetrahydroisoquinoline-2-carbonyl) tetrahydrofuran-2-carboxylic acid], the EC50 in experiment [1] (BEAS-2B, 24 h) is 750 nM. Besides, in experiment [2], the IC50 came to 17 nM.
On to `Cn1nc(COc2ccc(Cl)c3c2[C@@H](CN2CCCC2=O)N(C(=O)[C@@H]2CCCC[C@@H]2C(=O)O)CC3)c2ccccc21` [Example 98, (1S,2R)-2-((S)-5-Chloro-8-((1-methyl-1H-indazol-3-yl)methoxy)-1-((2-oxopyrrolidin-1-yl)methyl)-1,2,3,4-tetrahydroisoquinoline-2-carbonyl) cyclohexane-1-carboxylic acid], for which the EC50 in experiment [1] (BEAS-2B, 24 h) amounted to 330 nM. In experiment [2], this compound had a half-maximal inhibitory concentration (IC50) of 10 nM.
The corresponding values for `Cn1cnc2ccc(COc3ccc(Cl)c4c3[C@@H](CN3CCCC3=O)N(C(=O)[C@@H]3CCCC[C@@H]3C(=O)O)CC4)nc21` [Example 99, (1S,2R)-2-((S)-5-chloro-8-((3-methyl-3H-imidazo [4,5-b]pyridin-5-yl)methoxy)-1-((2-oxopyrrolidin-1-yl)methyl)-1,2,3,4-tetrahydroisoquinoline-2-carbonyl) cyclohexane-1-carboxylic acid] are 520 nM and 9.7 nM.

The values are drawn from patent publication US12098148B2, “Therapeutic compounds” (C4X Discovery Limited, priority 2018, dated 2024).
